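These data come from cells grown in 96-well plates and exposed to compound for 48 hours at five concentrations. GI50 marks 50% less growth.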 Activity calls are given as the source filed them. No stated cut-off is given here; in the data, active = GI50 up to about 1.1 µM and inactive = higher.
Legend:
Assay in all cases: inhibition of tumour cell growth, NCI panel, 48 h
[1] = tested on: SF-268
[2] = tested on: IGROV-1
[3] = tested on: MCF7
[4] = tested on: UO-31
[5] = tested on: HOP-62
[6] = tested on: SK-MEL-5
[7] = tested on: NCI-H226
[8] = tested on: SNB-75
[9] = tested on: A498
[10] = tested on: UACC-257
[11] = tested on: MDA-MB-231
[12] = tested on: HOP-92
[13] = tested on: RPMI-8226
[14] = tested on: OVCAR-5
[15] = tested on: NCI-H522
[16] = tested on: PC-3
[17] = tested on: HT-29
[18] = tested on: SR
[19] = tested on: EKVX
[20] = tested on: T47D

Measured: GI50

CC(C)(C)OCC1NC(=O)[C@@H]2Cc3c([nH]c4ccccc34)C(c3ccccc3)N2C1=O (stereo not given in full)
inactive: [1] > 50 µM | [2] > 50 µM | [3] > 50 µM | [4] > 50 µM | [5] > 50 µM | [6] > 50 µM | [7] > 27.4 µM | [8] > 50 µM | [9] > 50 µM | [10] > 50 µM | [11] > 50 µM | [12] > 50 µM | [13] > 21.6 µM | [14] > 50 µM | [15] > 50 µM | [16] > 50 µM | [17] > 50 µM | [18] > 22.4 µM | [19] > 50 µM | [20] > 50 µM

NS(=O)(=O)c1ccc(NC(=O)N/N=C/c2ccccc2[N+](=O)[O-])cc1
inactive: [1] 56.6 µM | [2] 31.2 µM | [3] 29.7 µM | [4] 41 µM | [5] 40.8 µM | [6] 65.5 µM | [7] 42.9 µM | [8] > 100 µM | [9] > 100 µM | [10] 79.4 µM | [11] 44.8 µM | [12] 65.3 µM | [13] 30.3 µM | [14] > 100 µM | [15] 41.8 µM | [16] 35.6 µM | [17] 30.1 µM | [18] 17.9 µM | [19] 61 µM | [20] 57.4 µM

COc1cc2c(cc1OC)[C@@](C)(C(O)C(O)C(C)(C)O)NCC2 (stereo not given in full)
inactive: [1] > 100 µM | [2] > 100 µM | [3] > 100 µM | [4] > 100 µM | [5] > 100 µM | [6] > 100 µM | [7] > 100 µM | [8] > 100 µM | [9] > 100 µM | [10] > 100 µM | [11] > 100 µM | [12] > 100 µM | [13] > 100 µM | [14] > 100 µM | [15] > 100 µM | [16] > 100 µM | [17] > 100 µM | [18] > 100 µM | [19] > 100 µM | [20] > 100 µM

C1=N\c2ccc(cc2)-c2ccc(cc2)/N=C\c2ccccc2OCc2cccc(n2)COc2ccccc2/1
inactive: [1] 20.6 µM | [2] 40.6 µM | [3] > 100 µM | [4] > 60.7 µM | [5] 5.27 µM | [6] > 31.2 µM | [7] 39.5 µM | [8] 2.83 µM | [9] 65.9 µM | [10] > 100 µM | [11] 34 µM | [12] 10.9 µM | [13] > 100 µM | [14] > 63.5 µM | [15] 23.8 µM | [16] > 100 µM | [17] > 100 µM | [18] > 100 µM | [19] 36.4 µM | [20] > 54 µM

COc1cccc2c1Cc1cc(-c3ccccc3)[n+](C)n1-2
inactive: [1] 19.9 µM | [2] 12.5 µM | [3] 2.3 µM | [4] 22.5 µM | [5] 42.3 µM | [6] 8.89 µM | [7] 11.7 µM | [8] 20 µM | [9] 31.5 µM | [10] 3.58 µM | [11] 13.2 µM | [12] 13.7 µM | [13] 4.18 µM | [14] 23.9 µM | [15] 4.93 µM | [16] 11.4 µM | [17] 3.54 µM | [18] 7.57 µM | [19] 1.5 µM | [20] 3.4 µM

O=C(/C=C/c1ccc(O)c(O)c1)OCC(OC(=O)/C=C/c1ccc(O)c(O)c1)C(=O)O (stereo not given)
inactive: [1] > 100 µM | [2] 80.9 µM | [3] > 100 µM | [4] 85.7 µM | [5] 70.5 µM | [6] > 100 µM | [7] > 100 µM | [8] 63 µM | [9] > 100 µM | [10] > 100 µM | [11] > 100 µM | [12] > 100 µM | [13] > 100 µM | [14] > 100 µM | [15] 84.7 µM | [16] > 100 µM | [17] > 100 µM | [18] 21.3 µM | [19] > 100 µM | [20] > 100 µM

Source: ChEMBL document CHEMBL1201862, “PubChem BioAssay data set” (2004)
